Results from patent publication US6166036A, “Lp(a)-lowering agent and apolipoprotein (a) formation suppressing agent” (Taiho Pharmaceutical Co., Ltd., priority 1998, dated 2000).

Legend:
apo(a) gene = assay: Test on suppression of apo(a) gene expression (luciferase assay in HepG2 cells); format: cell-based, human; settings: final concentration of 2 μM, 48 hours; for inhibition at 2 µM: Homo sapiens, relative to DMSO control group, read-out: Expression ratio (%) of apo(a) gene; for effect on expression of apo(a) gene (in words): conclusion from Table 5
Procedure: This test was carried out in accordance with the method described in "BIOCHEMICAL AND BIOPHYSICAL RESEARCH COMMUNICATIONS 227, 570-575[…] ARTICLE No. 1547". Described specifically, 2 μg/mL of an apo(a) gene (1441 base pairs) separated from the blood of normal volunteers was introduced into HepG2 cells (2×10^5 cells/mL), followed by culturing for 16 hours. Compound 4 was dissolved in DMSO (dimethylsulfoxide) to give a final concentration of 2 μM, to which the cultured cells were added. After culturing for further 48 hours, the expression of an apo(a) gene was measured regarding it as luciferases reaction and therefore, using luciferases assay system (Picagene) of Toyo Ink Mfg. Co., Ltd. for the analysis of gene expression. Namely, the cultured HepG2 cells were dissolved in a liquid to dissolve them therein. The resulting solution was centrifuged to obtain a supernatant. To 200 μl of the resulting supernatant was added 100 μl of a […] substrate, followed by mixing for 15 seconds. The luminescence was measured by a chemo-bioluminescence measuring device (Luminoscan RS) of Dainippon Pharmaceutical Co., Ltd. and expression ratio of an apo(a) gene was determined. The expression ratio of an apo(a) gene was calculated from the ratio to the luminescence of a group (control group) to which the same amount of DMSO had been added. As comparative compounds, pravastatin (HMG-COA reductase inhibitor, sterol synthesis inhibitor) and bezafibrate (fibrate series medicament, antihyperlipoproteinemic) were treated in a similar manner and provided for the test.

Lp(a) = assay: A test on lowering of the Lp(a) level in crab-eating monkeys; format: in vivo, crab-eating monkey; settings: oral 30 mg/kg, three weeks; for Changing ratio (%) of Lp(a): male, 5 per group, Lp(a) level in blood, average value; for effect on Lp(a) level (in words): conclusion from Table 6
Procedure: Crab-eating monkeys (male, 2.4 to 3.9 kg in weight) were reared in groups, each group consisting of 5 monkeys. Compound 4 was suspended in a 0.5%, HPMC (hydroxypropylmethyl cellulose) solution in an amount of 30 mg/5 mL, whereby the test compound was prepared. To the specimen-administered group, the test compound was orally administered at a dose of 30 mg/kg. At the starting time of administration and three weeks after administration, the Lp(a) level in the blood of the tested animals was measured. For the measurement, a kit ("Immunosearch Lp(a) TIA") commercially available from Cosmo Bio Co., Ltd. was employed. Namely, according to the procedure as indicated in the kit, the measurement was carried out by adding 256 μl of a phosphate buffer to 7 μl of the serum and then adding the goat anti-human Lp(a) serum to the resulting mixture. For the measurement, a biochemical automatic analyzer ("Hitachi 7170"; product of Hitachi Ltd.) was employed. As a comparative compound, pravastatin and bezafibrate were treated similarly and provided for the test. From the measuring results, a changing ratio (%) of the Lp(a) level at the starting time of administration relative to that three weeks after the administration was determined with regards to each of the monkeys and the average value was expressed as an Lp(a) lowering ratio.

beagles = assay: Acute toxicity test in beagles; format: in vivo, beagle dog; settings: 7-month old male beagles, 2 per group, fasted 16 hours; oral 2000 mg/kg in 0.5% HPMC
Procedure: After 7-month old beagles (male, each group consisting of 2 beagles) were fasted for 16 hours, Compound 4 suspended in a 0.5%, HPMC solution was orally administered at a dose of 2000 mg/kg.

| Structure (SMILES) | inhibition at 2 µM (apo(a) gene) [%] | effect on expression of apo(a) gene (in words) (apo(a) gene) | Changing ratio (%) of Lp(a) (Lp(a)) | effect on Lp(a) level (in words) (Lp(a)) | death cases (beagles) | serious side effects (beagles) |
| --- | --- | --- | --- | --- | --- | --- |
| CC(C)(Oc1ccc(CCNC(=O)c2ccc(Cl)cc2)cc1)C(=O)O [Bezafibrate, bezafibrate] | -3 | reinforced the expression of the apo(a) gene | +8% | increased the Lp(a) level | – | – |
| CC(C)(C)c1ccc(N2C[C@@H](COc3ccc(C(=O)O)cc3)CC2=O)cc1 [Compound 4, (S)-(+)-4-[1-(4-tert-butylphenyl)-2-pyrrolidon-4-yl]methoxybenzoic acid] | 24 | exhibited excellent effects for suppressing the expression of an apo(a) gene | -33% | exhibited excellent Lp(a) lowering effects | neither death case | nor serious side effects were recognized |
| CC[C@H](C)C(=O)O[C@H]1C[C@H](O)C=C2C=C[C@H](C)[C@H](CC[C@@H](O)C[C@@H](O)CC(=O)O)[C@H]21 [Pravastatin, pravastatin] | -27 | reinforced the expression of the apo(a) gene | +35% | increased the Lp(a) level | – | – |
